melting point [°C]	SMILES
150 to 155	COc1ccc2nccc([C@@H]3CN(CCCNS(=O)(=O)c4ccc5c(c4)NC(=O)CO5)C(=O)O3)c2c1
128 to 130	COc1ccc2nccc([C@@H]3CN(CCCNS(=O)(=O)c4ccc5c(c4)NC(=O)CCS5)C(=O)O3)c2c1
